Test system: yeast genes (expressed mRNA)
Experiment: DNA chip measurement of expressed mRNA of yeast genes after culture with a toxic chemical substance
Format: cell-based, Saccharomyces cerevisiae S288C
In short: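 Expression is given as treated/untreated fluorescence ratio on a whole-genome yeast DNA chip, a ratio of two or more being significant. Log-phase S288C cultures in YPD at 25 °C received the chemical for 2 h at a dose that slows growth without killing. mRNA was reverse-transcribed with Cy3- or Cy5-dUTP.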

Structure (SMILES): C=CC=O [(14), Acrolein]
- The level of expressed mRNA in the presence of chemical substance/The level of expressed mRNA in the absence of chemical substance (yeast gene YMR316W, cultured two hours with substance): 1.3
- The level of expressed mRNA in the presence of chemical substance/The level of expressed mRNA in the absence of chemical substance (yeast gene YNL036W): 5.1
- The level of expressed mRNA in the presence of chemical substance/The level of expressed mRNA in the absence of chemical substance (yeast gene YNL044W, cultured two hours with substance): 1.2
- The level of expressed mRNA in the presence of chemical substance/The level of expressed mRNA in the absence of chemical substance (yeast gene YNL074C, cultured two hours with substance): 0.6
- The level of expressed mRNA in the presence of chemical substance/The level of expressed mRNA in the absence of chemical substance (yeast gene YNL092W, cultured two hours with substance): 1.2
- The level of expressed mRNA in the presence of chemical substance/The level of expressed mRNA in the absence of chemical substance (yeast gene YNL115C, cultured two hours with substance): 1.0
- The level of expressed mRNA in the presence of chemical substance/The level of expressed mRNA in the absence of chemical substance (yeast gene YNL155W, cultured two hours with substance): 2.1
- The level of expressed mRNA in the presence of chemical substance/The level of expressed mRNA in the absence of chemical substance (yeast gene YNL156C, cultured two hours with substance): 1.4
- The level of expressed mRNA in the presence of chemical substance/The level of expressed mRNA in the absence of chemical substance (yeast gene YNL190W, cultured two hours with substance): 0.6
- The level of expressed mRNA in the presence of chemical substance/The level of expressed mRNA in the absence of chemical substance (yeast gene YNL195C, cultured two hours with the chemical substance): 1.5
- The level of expressed mRNA in the presence of chemical substance/The level of expressed mRNA in the absence of chemical substance (yeast gene YNL208W, cultured two hours with substance): 1.0
- The level of expressed mRNA in the presence of chemical substance/The level of expressed mRNA in the absence of chemical substance (yeast gene YNL234W, cultured two hours with substance): 1.5
- The level of expressed mRNA in the presence of chemical substance/The level of expressed mRNA in the absence of chemical substance (yeast gene YNL281W, cultured two hours with substance): 1.2
- The level of expressed mRNA in the presence of chemical substance/The level of expressed mRNA in the absence of chemical substance (yeast gene YNL300W, cultured two hours with substance): 0.8
- The level of expressed mRNA in the presence of chemical substance/The level of expressed mRNA in the absence of chemical substance (yeast gene YNL305C, cultured two hours with substance): 1.3
- The level of expressed mRNA in the presence of chemical substance/The level of expressed mRNA in the absence of chemical substance (yeast gene YNL335W): 4.6
- The level of expressed mRNA in the presence of chemical substance/The level of expressed mRNA in the absence of chemical substance (yeast gene YNR064C, cultured two hours with substance): 0.8
- The level of expressed mRNA in the presence of chemical substance/The level of expressed mRNA in the absence of chemical substance (yeast gene YNR068C, cultured two hours with substance): 1.8
- The level of expressed mRNA in the presence of chemical substance/The level of expressed mRNA in the absence of chemical substance (yeast gene YOL032W, cultured two hours with substance): 1.3
- The level of expressed mRNA in the presence of chemical substance/The level of expressed mRNA in the absence of chemical substance (yeast gene YOL036W, cultured two hours with substance): 1.0
- The level of expressed mRNA in the presence of chemical substance/The level of expressed mRNA in the absence of chemical substance (yeast gene YOL047C, cultured two hours with substance): 1.2
- The level of expressed mRNA in the presence of chemical substance/The level of expressed mRNA in the absence of chemical substance (yeast gene YOL071W, cultured two hours with substance): 2.5
- The level of expressed mRNA in the presence of chemical substance/The level of expressed mRNA in the absence of chemical substance (yeast gene YOL082W, cultured two hours with substance): 1.4
- The level of expressed mRNA in the presence of chemical substance/The level of expressed mRNA in the absence of chemical substance (yeast gene YOL083W, cultured two hours with substance): 1.4
- The level of expressed mRNA in the presence of chemical substance/The level of expressed mRNA in the absence of chemical substance (yeast gene YOL117W, cultured two hours with substance): 1.7
- The level of expressed mRNA in the presence of chemical substance/The level of expressed mRNA in the absence of chemical substance (yeast gene YOL131W, cultured two hours with substance): 2.3
- The level of expressed mRNA in the presence of chemical substance/The level of expressed mRNA in the absence of chemical substance (yeast gene YOL150C, cultured two hours with substance): 5.7
- The level of expressed mRNA in the presence of chemical substance/The level of expressed mRNA in the absence of chemical substance (yeast gene YOL162W, cultured two hours with substance): 1.4
- The level of expressed mRNA in the presence of chemical substance/The level of expressed mRNA in the absence of chemical substance (yeast gene YOR019W, cultured two hours with substance): 1.4
- The level of expressed mRNA in the presence of chemical substance/The level of expressed mRNA in the absence of chemical substance (yeast gene YOR049C, cultured two hours with substance): 1.5
- The level of expressed mRNA in the presence of chemical substance/The level of expressed mRNA in the absence of chemical substance (yeast gene YOR197W, cultured two hours with substance): 0.7
- The level of expressed mRNA in the presence of chemical substance/The level of expressed mRNA in the absence of chemical substance (yeast gene YOR248W, cultured two hours with substance): 0.5
- The level of expressed mRNA in the presence of chemical substance/The level of expressed mRNA in the absence of chemical substance (yeast gene YOR338W, cultured two hours with substance): 2.5
- The level of expressed mRNA in the presence of chemical substance/The level of expressed mRNA in the absence of chemical substance (yeast gene YPL052W, cultured two hours with substance): 3.2
- The level of expressed mRNA in the presence of chemical substance/The level of expressed mRNA in the absence of chemical substance (yeast gene YPL087W, cultured two hours with substance): 1.2
- The level of expressed mRNA in the presence of chemical substance/The level of expressed mRNA in the absence of chemical substance (yeast gene YPL171C, cultured for two hours with substance): 9.3
- The level of expressed mRNA in the presence of chemical substance/The level of expressed mRNA in the absence of chemical substance (yeast gene YPL196W, cultured two hours with substance): 1.6
- The level of expressed mRNA in the presence of chemical substance/The level of expressed mRNA in the absence of chemical substance (yeast gene YPL206C, cultured two hours with substance): 1.1
- The level of expressed mRNA in the presence of chemical substance/The level of expressed mRNA in the absence of chemical substance (yeast gene YPL222W, cultured two hours with substance): 1.1
- The level of expressed mRNA in the presence of chemical substance/The level of expressed mRNA in the absence of chemical substance (yeast gene YPR023C, cultured two hours with substance): 0.9
- The level of expressed mRNA in the presence of chemical substance/The level of expressed mRNA in the absence of chemical substance (yeast gene YPR079W, cultured two hours with substance): 1.3
- The level of expressed mRNA in the presence of chemical substance/The level of expressed mRNA in the absence of chemical substance (yeast gene YPR151C, cultured two hours with substance): 1.4
